Among the data in article PMC9516332 (Frontiers in Oncology, 2022) are inhibition values, retold here.

Holding throughout (assay): Kinase panel profiling at 1 µmol/L (MSA or IMAP), percentage inhibition
Holding throughout (assay type): biochemical

Experiment [1] has as its target panel of 255 wild-type kinases (Homo sapiens, UniProt Q15208). Particulars: NDR1; 1 µmol/L single concentration; read-out: %-inhibition, NDR1.
Experiment [2] concerns the target panel of 255 wild-type kinases (Homo sapiens, UniProt Q9UBS0). Particulars: p70S6Kβ; 1 µmol/L single concentration; read-out: %-inhibition, p70S6Kβ.
In experiment [3] the target is panel of 255 wild-type kinases (Homo sapiens, UniProt Q16654). Particulars: kinase PDHK4; 1 µmol/L single concentration; read-out: %-inhibition at 1 µmol/L, PDHK4.
The target of experiment [4] is panel of 255 wild-type kinases (Homo sapiens, UniProt Q9BYP7). Particulars: kinase WNK3; 1 µmol/L single concentration; read-out: %-inhibition at 1 µmol/L, WNK3.
Experiment [5] deals with T1, panel of 255 wild-type kinases (Homo sapiens, UniProt P29322).
T1 sequence (P29322 28-1005): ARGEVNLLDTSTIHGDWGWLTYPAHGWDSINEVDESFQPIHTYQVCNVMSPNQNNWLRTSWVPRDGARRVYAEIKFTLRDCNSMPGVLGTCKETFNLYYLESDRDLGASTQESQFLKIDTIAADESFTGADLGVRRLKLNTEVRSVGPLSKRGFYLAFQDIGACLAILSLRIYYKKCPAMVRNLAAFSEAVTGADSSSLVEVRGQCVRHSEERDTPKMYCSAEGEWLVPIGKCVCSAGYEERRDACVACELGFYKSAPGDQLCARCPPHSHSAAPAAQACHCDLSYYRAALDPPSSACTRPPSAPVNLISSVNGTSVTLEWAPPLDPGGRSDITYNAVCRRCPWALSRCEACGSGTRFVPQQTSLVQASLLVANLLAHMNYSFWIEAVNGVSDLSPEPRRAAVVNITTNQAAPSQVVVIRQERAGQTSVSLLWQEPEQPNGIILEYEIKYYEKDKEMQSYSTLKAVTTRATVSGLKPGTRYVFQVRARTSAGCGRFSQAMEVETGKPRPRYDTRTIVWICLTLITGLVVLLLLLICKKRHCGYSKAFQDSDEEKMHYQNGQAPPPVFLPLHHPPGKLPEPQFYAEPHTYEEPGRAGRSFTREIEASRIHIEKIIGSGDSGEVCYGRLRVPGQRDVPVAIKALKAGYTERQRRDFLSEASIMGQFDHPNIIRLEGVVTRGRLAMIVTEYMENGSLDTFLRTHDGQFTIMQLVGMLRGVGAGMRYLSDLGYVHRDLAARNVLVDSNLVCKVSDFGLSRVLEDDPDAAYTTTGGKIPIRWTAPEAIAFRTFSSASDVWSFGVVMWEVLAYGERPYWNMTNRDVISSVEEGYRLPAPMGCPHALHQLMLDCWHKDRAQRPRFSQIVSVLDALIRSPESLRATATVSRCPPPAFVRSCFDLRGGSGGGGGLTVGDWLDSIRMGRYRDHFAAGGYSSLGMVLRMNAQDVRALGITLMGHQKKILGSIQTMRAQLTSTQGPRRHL
Particulars: kinase EPHA8; 1 µmol/L single concentration; read-out: %-inhibition at 1 µmol/L, EPHA8.

The target of experiment [6] is T2, panel of 255 wild-type kinases (Homo sapiens, UniProt P54753).
T2 sequence (P54753 34-998): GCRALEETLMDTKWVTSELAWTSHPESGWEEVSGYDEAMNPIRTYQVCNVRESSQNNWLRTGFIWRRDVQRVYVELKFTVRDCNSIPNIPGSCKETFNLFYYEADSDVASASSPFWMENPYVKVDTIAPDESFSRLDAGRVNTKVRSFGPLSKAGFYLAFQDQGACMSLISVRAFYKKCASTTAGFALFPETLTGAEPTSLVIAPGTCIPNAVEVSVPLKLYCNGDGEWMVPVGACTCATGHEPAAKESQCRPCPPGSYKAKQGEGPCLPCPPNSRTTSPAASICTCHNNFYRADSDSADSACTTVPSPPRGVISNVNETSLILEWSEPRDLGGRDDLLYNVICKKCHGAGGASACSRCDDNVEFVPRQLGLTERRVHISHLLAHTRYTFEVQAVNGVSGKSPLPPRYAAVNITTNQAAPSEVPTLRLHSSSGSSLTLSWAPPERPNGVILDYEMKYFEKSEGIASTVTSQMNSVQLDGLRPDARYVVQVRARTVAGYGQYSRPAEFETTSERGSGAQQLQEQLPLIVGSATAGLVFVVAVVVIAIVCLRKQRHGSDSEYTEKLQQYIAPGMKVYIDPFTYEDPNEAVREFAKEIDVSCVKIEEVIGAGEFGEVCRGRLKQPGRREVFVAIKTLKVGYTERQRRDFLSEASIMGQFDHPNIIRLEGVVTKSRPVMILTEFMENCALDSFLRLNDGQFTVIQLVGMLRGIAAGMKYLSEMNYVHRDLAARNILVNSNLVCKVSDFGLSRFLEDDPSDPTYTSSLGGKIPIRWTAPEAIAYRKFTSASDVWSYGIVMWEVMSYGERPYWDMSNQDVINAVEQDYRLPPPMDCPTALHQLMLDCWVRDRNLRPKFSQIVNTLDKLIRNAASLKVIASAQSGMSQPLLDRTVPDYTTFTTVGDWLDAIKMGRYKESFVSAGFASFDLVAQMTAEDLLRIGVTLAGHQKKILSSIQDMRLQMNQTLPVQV
The note with it: kinase EPHB3; 1 µmol/L single concentration; read-out: %-inhibition at 1 µmol/L, EPHB3.

Experiment [7] concerns the target T3, panel of 255 wild-type kinases (Homo sapiens, UniProt Q9NWZ3).
T3 sequence (Q9NWZ3 1-460): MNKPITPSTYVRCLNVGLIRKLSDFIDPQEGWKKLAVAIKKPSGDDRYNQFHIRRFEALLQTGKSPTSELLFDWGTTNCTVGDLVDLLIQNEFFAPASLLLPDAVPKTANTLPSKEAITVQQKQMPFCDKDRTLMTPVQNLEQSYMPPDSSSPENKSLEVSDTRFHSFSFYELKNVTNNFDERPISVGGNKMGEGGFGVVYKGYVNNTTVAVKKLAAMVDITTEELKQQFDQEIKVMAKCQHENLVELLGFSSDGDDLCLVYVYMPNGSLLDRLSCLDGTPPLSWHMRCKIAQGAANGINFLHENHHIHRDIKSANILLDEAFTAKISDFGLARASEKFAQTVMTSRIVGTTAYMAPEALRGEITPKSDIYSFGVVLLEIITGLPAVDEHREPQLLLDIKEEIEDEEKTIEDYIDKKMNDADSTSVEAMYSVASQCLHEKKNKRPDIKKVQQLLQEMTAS
The note with it: kinase IRAK4; 1 µmol/L single concentration; read-out: %-inhibition at 1 µmol/L, IRAK4.

As to `CCN1C(=O)N(c2c(F)c(OC)cc(OC)c2F)Cc2cnc3[nH]c(CN4CCOCC4)cc3c21` [pemigatinib], the inhibition at 1 µM was -4.31% in experiment [1]; -0.851% in experiment [2]; -4% in experiment [3]; -0.586% in experiment [4]; -6% in experiment [5]; -2.52% in experiment [6]. Moreover, the inhibition at 1 µM in experiment [7] worked out at 0.22%.

For the compound `FC(F)(F)c1ccc(CNc2ccc(Cc3c[nH]c4ncc(Cl)cc34)cn2)cn1` [pexidartinib], the inhibition at 1 µM was 13% in experiment [1]; 7% in experiment [2]; 4.63% in experiment [3]; 0.624% in experiment [4]; 6.33% in experiment [5]; -7% in experiment [6]. Besides, the inhibition at 1 µM in experiment [7] was determined as 37%.

As to `CO[C@]1(C(=O)N[C@@H](C)c2ccc(-n3cc(F)cn3)nc2)CC[C@H](c2nc(C)cc(Nc3cc(C)[nH]n3)n2)CC1` [pralsetinib], the inhibition at 1 µM is 7.54% in experiment [1]; 5.54% in experiment [2]; 12% in experiment [3]; 0.505% in experiment [4]; 84% in experiment [5]; -0.435% in experiment [6]. Moreover, the inhibition at 1 µM in experiment [7] is -0.786%.

As to `CCn1c(=O)c(-c2cc(NC(=O)Nc3ccccc3)c(F)cc2Br)cc2cnc(NC)cc21` [ripretinib], the inhibition at 1 µM is 0.881% in experiment [1]; 2.19% in experiment [2]; 4% in experiment [3]; -1.09% in experiment [4]; 101% in experiment [5]; 59% in experiment [6]. Besides, the inhibition at 1 µM in experiment [7] was -3.46%.

Regarding `COc1ccc(CN2C3CC2CN(c2ccc(-c4cc(OCC(C)(C)O)cn5ncc(C#N)c45)cn2)C3)cn1` [selpercatinib], the inhibition at 1 µM is -1.18% in experiment [1]; 6.63% in experiment [2]; -2.71% in experiment [3]; -1.49% in experiment [4]; 45% in experiment [5]; -0.598% in experiment [6]. Also, the inhibition at 1 µM in experiment [7] amounted to 1.9%.

Turning to `Cn1cnc2c(F)c(Nc3ccc(Br)cc3Cl)c(C(=O)NOCCO)cc21` [selumetinib], the inhibition at 1 µM in experiment [1] was 0.227%; in experiment [2], 8%; in experiment [3] it was 0.425%; in experiment [4], -1.43%; in experiment [5], -12%; in experiment [6] it was -3%. Besides, the inhibition at 1 µM in experiment [7] was -1.34%.

With `Cc1cc(Nc2ncnc3ccc(NC4=NC(C)(C)CO4)cc23)ccc1Oc1ccn2ncnc2c1` [tucatinib], the inhibition at 1 µM in experiment [1] was -0.331%; in experiment [2] it was 3.57%; in experiment [3], 7.57%; in experiment [4], 3%; in experiment [5], -14%; in experiment [6], -5.68%. The inhibition at 1 µM in experiment [7] stood at 0.835%.

`C=CC(=O)N1CCC([C@@H]2CCNc3c(C(N)=O)c(-c4ccc(Oc5ccccc5)cc4)nn32)CC1` [zanubrutinib]: the inhibition at 1 µM was -1.86% in experiment [1]; -0.467% in experiment [2]; 0.136% in experiment [3]; 5.7% in experiment [4]; -8% in experiment [5]; -1.32% in experiment [6]. Further, the inhibition at 1 µM in experiment [7] is 1%.
